“Also recorded” adds a separate entry of the source. Where two headings read alike, the source gives them in different places. Peptide text beside a SMILES is read from it.
Tests used:
[1] = system: human cancer cell lines expressing the LHRH receptor; conditions: cited from earlier work
From the text: EP-100 is a synthetic 28 amino acid consisting of the LHRH natural ligand joined to an 18 amino acid cationic α-helical lytic peptide (CLIP-71) without a linker. LHRH delivers the lytic peptide to cancer cells via specific binding to cell-surface LHRH receptors. Although EP-100’s exact mechanism of action has not yet been resolved, cancer cell membrane surface characteristics are believed to play a critical role.

[2] = cited from earlier work; for histamine release (clinical signs: swelling, redness or raised areas): pre-clinical studies; for well tolerated dose (as high as): repeated dose, ref Esperance data on file
Procedure: Clinical signs of histamine release were eliminated in a female dog and lessened in a male dog when diphenhydramine was administered. Therefore, histamine release may cause IRDRs, but it remains unclear how EP-100 triggers IRDRs in humans and why the reaction is seen in skin only. Among patients experiencing IRDRs, hematolo ...

[3] = Antidrug antibodies (anti-EP-100) ELISA in human serum; assay type: in vivo; conditions: any dose level
Procedure: ADA were evaluated using an enzyme linked immunoassay validated for the detection of antibodies against EP-100 (anti-EP-100) (Icon plc, formerly Prevalere Life Sciences, LLC, Whitesboro, NY). Antibodies were produced in rabbits against the lytic peptide moiety of EP-100 (APC 338983). Antibodies against EP-100 in human serum were detected by coating 96-well microtiter plates with peptide 338983. At least two wells from each plate were coated with human IgG at 500 ng/mL as controls for the goat antihuman horseradish peroxidase detector. Rabbit anti-EP-100 polyclonal antibody was used as a positive control. The plates were washed, and a mixture of goat antirabbit HRP and goat antihuman HRP and tetramethylbenzidine peroxide substrate were added, and the color development determined in a spectrophotometer at 450 and 620 nm wavelength. The developed color was proportional to the amount of anti-EP-100 antibody in the sample. The anti-EP-100 antibodies in serum were quantified from a calibration curve prepared from the positive control and ranged from 500 to 32,000 ng/mL in 100 % human serum.

[4] = ref Esperance data on file, cited from earlier work
Procedure: A conservative first-in-human starting dose of 0.6 mg/m^2 was chosen, based on the repeat-dose toxicity studies in dogs (which appeared to be the most sensitive species). The initial dose schedule of one 30 min infusion weekly was pre ...

[5] = system: advanced LHRH-receptor-expressing solid tumors; assay: Antitumor activity by RECIST version 1.1, tumor biomarkers and CTC; assay type: in vivo, human
Procedure: A history and physical examination were conducted pre-study and before every cycle. A complete blood count, serum electrolytes and chemistries were evaluated pre-study and then weekly. Tumor response or progression was assessed by imaging studies at baseline and after every 2 cycles. RECIST version 1.1 criteria were used to assess response.
FSH and LH levels as well as testosterone in men and estradiol levels in women were obtained on Days 1, 8, 15 and 22 within 24 h prior to dosing. Testosterone and estradiol levels were measured on Day 1 only after Cycle 1 and at off study assessment. Blood was collected for circulating tumor cells (CTC) prior to dosing on Day 1 of the first cycle. Patients with positive CTC at baseline also had blood collected for CTC analysis prior to dosing on Day 1 of each subsequent cycle. Additional studies included plasma cortisol, adrenocorticotropin (ACTH), thyroxine (T4) and thyroid-stimulating hormone (TSH) and blood for tumor specific biomarker analysis (at investigator’s discretion), all obtained prior to Day 1 dosing with each cycle and at off study assessment. Samples for antidrug antibodies (ADA) were collected on Day 1 of Cycle 1 and then on Day 1 of every odd cycle.

[6] = Plasma pharmacokinetics of EP-100 after IV infusion (phase I); assay type: in vivo, human; conditions: for time at which C max was reached: majority of patients
Procedure: Blood samples (approximately 5 mL) were collected on Cycle 1 Day 1 at the following times: pre-dose, 10 and 20 min after start of EP-100 infusion, prior to completion of the infusion (−3 min) and 2, 15, 30, 60 (±2), 120 (±2) and 240 (±5) min after the infusion. Concentrations of EP-100 in EDTA-anticoagulated plasma were assayed by a validated HPLC-Mass Spectrometry method developed at Covance (Indianapolis, IN). EP-100 and the internal standard were extracted from human plasma by solid-phase extraction and analyzed using liquid chromatography with tandem mass spectrometric detection (MS/MS). The lower limit of quantitation for EP-100 in human plasma was 0.025 μg/mL, with linearity demonstrable to 5 μg/mL (upper limit of quantitation). Plasma PK analysis for EP-100 was performed using non-compartmental methods with Phoenix™ WinNonlin® version 6.1 or higher (Pharsight Corp., Mountain View, CA). Concentration–time profiles were constructed from the plasma sample data. Estimates of the area under the plasma concentration time curve (AUC) and slope of the terminal decay phase were used to calculate values of the following pharmacokinetic parameters: apparent terminal phase half-life (t 1/2), total body clearance (CL), apparent time of maximum concentration (T max) and apparent volume of distribution (V z). Means and standard deviations are presented where applicable. Phoenix™ WinNonlin® was used to identify the terminal linear phase of the concentration–time profile. The number of points chosen was determined based on the largest regression coefficient, R ^2, obtained. A minimum of three data points was used for determination of λ z, the elimination rate constant, determined by the slope of the terminal linear phase. The R ^2 had to be ≥0.8 to be included in the pharmacokinetic results. Summary statistics were prepared using Microsoft Excel 2007, and graphics were prepared with SigmaPlot™ version 11.2 (Systat Software Inc., Richmond, CA).

[7] = system: LHRH-receptor-positive cell lines; conditions: in vitro; cited from earlier work
From the text: (§1) A phase 2 clinical trial te ...

[8] = system: breast cancer model; conditions: in vivo breast cancer model; ref Esperance, data on file; cited from earlier work
From the text: as §1

CC(C)C[C@H](NC(=O)CNC(=O)[C@H](Cc1ccc(O)cc1)NC(=O)[C@H](CO)NC(=O)[C@H](Cc1c[nH]c2ccccc12)NC(=O)[C@H](Cc1c[nH]cn1)NC(=O)[C@@H]1CCC(=O)N1)C(=O)N[C@@H](CCCNC(=N)N)C(=O)N1CCC[C@H]1C(=O)NCC(=O)N[C@@H](CCCCN)C(=O)N[C@@H](Cc1ccccc1)C(=O)N[C@@H](C)C(=O)N[C@@H](CCCCN)C(=O)N[C@@H](Cc1ccccc1)C(=O)N[C@@H](C)C(=O)N[C@@H](CCCCN)C(=O)N[C@@H](CCCCN)C(=O)N[C@@H](Cc1ccccc1)C(=O)N[C@@H](C)C(=O)N[C@@H](CCCCN)C(=O)N[C@@H](Cc1ccccc1)C(=O)N[C@@H](C)C(=O)N[C@@H](CCCCN)C(=O)N[C@@H](CCCCN)C(=O)N[C@@H](Cc1ccccc1)C(=O)N[C@@H](C)C(=O)N[C@@H](CCCCN)C(=O)O [EP-100] (HELM PEPTIDE1{[Glp].H.W.S.Y.G.L.R.P.G.K.F.A.K.F.A.K.K.F.A.K.F.A.K.K.F.A.K}$$$$V2.0; C-terminus assumed)
release of cell-death proteases from cells ([1]; in vitro, low micromolar concentrations): released from cells within minutes
incubation time to complete cell lysis ([1]; in vitro): 1 h
in vitro activity level ([1]; various human cancer cell lines from solid tumors and hematological malignancies expressing the LHRH receptor, ref Esperance data on file, 37): sub-micromolar
histamine release (clinical signs: swelling, redness or raised areas) ([2]; beagle dogs): may trigger histamine release
histamine release (clinical signs: swelling, redness or raised areas) ([2]; mice): may trigger histamine release
well tolerated dose (as high as) ([2]; dogs): 2.0 mg/kg
well tolerated dose (as high as) ([2]; mice): 2.0 mg/kg
antibodies to EP-100 (ADA) [3]: not detected
highest non-severely toxic dose ([4]; repeat-dose animal studies): 2.0 mg/kg/dose
pharmacologic effect on pituitary LH and FSH ([4]; some animals, with reduction in uterine and epididymal weights): reduction in pituitary production
objective tumor responses (RECIST version 1.1) ([5]; 37 patients, EP-100 single agent): No complete or partial tumor responses; also recorded: No objective tumor responses
treatment-related change in tumor biomarkers (CA-125 or PSA) or CTC values ([5]; patients): no treatment-related decreases
clinical benefit: patients with stable disease for 16 weeks or longer ([5]; seven of 37 patients, EP-100 single agent): 19%
increase in C max with dose ([6]; 0.6-40 mg/m^2, data highly variable): slightly greater than dose proportional
time at which C max was reached ([6]; EP-100 given over 30 min IV): 20 to 40 min
time at which C max was reached ([6]; EP-100 given over 60 min IV): 40 to 60 min
plasma concentrations versus concentrations active in vitro ([6]; doses of 5.2 mg/m^2 and above): reached the predicted “therapeutic” concentrations
volume of distribution, V z ([6]; doses of 7.8 to 17 mg/m2 IV): 2,400 to 2,666 mL
clearance ([6]; human, plasma, 0.6 mg/m2, dose 0.6 mg/m^2 IV): 299 mL/min
Vd ([6]; human, plasma, 0.6 mg/m2, dose 0.6 mg/m^2 IV, read-out: volume of distribution, V z): 4.35 L
clearance ([6]; human, plasma, 5.2 mg/m2, dose 5.2 mg/m^2 IV): 143 mL/min
Vd ([6]; human, plasma, 5.2 mg/m2, dose 5.2 mg/m^2 IV, read-out: volume of distribution, V z): 1.56 L
clearance ([6]; human, plasma, 7.8 mg/m2, dose 7.8 mg/m^2 IV): 223 mL/min
clearance ([6]; human, plasma, 11.7 mg/m2, dose 11.7 mg/m^2 IV): 222 mL/min
clearance ([6]; human, plasma, 17 mg/m2, dose 17 mg/m^2 IV): 110 mL/min
AUC(0-inf) ([6]; human, plasma, 40 mg/m2, highest dose level tested (40 mg/m^2), IV infusion, mean ± SD, read-out: mean AUC0–∞ (converted)): 5430 ng·h/mL
Cmax ([6]; human, plasma, 40 mg/m2, highest dose level tested (40 mg/m^2), IV infusion, mean ± SD, read-out: mean C max): 4760 ng/mL
half-life ([6]; human, plasma, 40 mg/m2, patients, IV infusion, highest dose tested (40 mg/m^2), read-out: terminal half-life): ~15 min
Vd ([6]; human, plasma, doses of 7.8 to 17 mg/m2 IV, read-out: volume of distribution, V z per body weight): ~0.06 L/kg
effect of combination with pgp substrates (doxorubicin, paclitaxel, vinorelbine, vincristine) and non-pgp substrates (cisplatinum, 5-fluorouracil) [7]: reversion of drug resistance and potentiation of toxicity
tolerability of combination EP-100 with paclitaxel [8]: well tolerated
